# Assay results published in a melting point compilation (Tetko et al.; mined from patent text by program, amines drawn as free bases though some values may be those of a salt).
row,Structure (SMILES),melting point [°C]
1,CCOC(=O)c1csc(-n2ccnc2)n1,107 to 109
2,Cc1c(CC(=O)O)c(=O)oc2cc(C3OC(CO)C(O)C(O)C3O)ccc12 (configuration not stated),186 to 188
3,CCc1nn(C2CN(C(C)C)C2)c(C(N)=O)c1NC(=O)c1cc(S(C)(=O)=O)ccc1OCC(C)C,185 to 189
4,CCn1c(N)nc2cc(CN3CCN(C(c4ccccc4)c4ccccc4)CC3)ccc21,214
5,CCC(C#N)=C1CCN(c2ccc(N3C[C@H](CNC(=O)C(Cl)(Cl)Cl)OC3=O)cc2F)CC1,150 to 152
6,O=C1OC(=O)C2CC(=C(F)F)CC12 (configuration not stated),140 to 145
7,COC12CC(CCOC(=O)c3ccc[nH]3)CN(C)C1Cc1cn(C)c3cccc2c13 (configuration not stated),148 to 149
8,CCCCCCCCCCCCCCCCNc1ccc(C(=O)OCC(C)O)cc1 (configuration not stated),91 to 93
9,CN(C)c1ncnc2c(O)cccc12,104 to 105
10,CNc1nc(C(=O)N(C)Cc2cc(C(F)(F)F)cc(C(F)(F)F)c2)c(-c2ccccc2)c2ccccc12,213 to 214
11,Cc1ccc(S(=O)(=O)OCC2COc3ccc([N+](=O)[O-])c(CC=O)c3O2)cc1 (configuration not stated),116 to 120
12,CC(C)(CN1CCN(C(=O)c2ccc(OC(=O)Cc3ccccc3Nc3c(Cl)cccc3Cl)cc2)CC1)SN=O,61 to 62
13,CC1C[C@@H]2[C@H](O1)[C@@H](NC(=O)OC(C)(C)C)CN2Cc1ccccc1 (relative stereo),56 to 60
14,O=C(c1nnc(-c2ccccc2)o1)N1CC(Oc2ccc(CN3CC(C(F)F)C3)cc2)C1,147
15,N[C@H]1CCCC[C@H]1Nc1cc2c(cc1F)c(=O)c(C(=O)O)cn2C1CC1 (relative stereo),270 to 274
16,O=c1c(Cl)c(N2CCC(c3ccccc3)CC2)ccn1Cc1ccc(OC(F)(F)F)cc1,169
17,CCCCc1n[nH]c(C(=O)O)c1Cc1ccc(-c2ccccc2-c2nc(=O)o[nH]2)cc1,213 to 214
18,CC(C)c1ccc(C(=O)c2c(N)sc3c2CCN(Cc2ccccc2)C3)cc1,157 to 158
19,OC1Cc2cc(F)c(F)cc2C1,57 to 58
20,COc1cc(N)c(Cl)cc1C(=O)NC1CCN(CC2CCN(C(=O)c3ccco3)CC2)CC1,179 to 181
21,CNC(=O)C#CCc1ccc(OC)cc1,123 to 124

row,Structure (SMILES),melting point [°C]
1,CC(C)(C(=O)c1ccc(N2CCOCC2)cc1)N1CCOCC1,114 to 116
2,CCc1ccc2c(=O)c(-c3nnn[nH]3)cn(C)c2c1,180 to 181
3,CC(C)n1c(SC(F)(F)C(F)F)nc(-c2ccc(F)cc2)c1-c1ccc(F)cc1,94 to 103
4,CCCc1c(N)ccc2c(=O)cc(C(=O)OCC)oc12,84 to 87
5,CN1C(=O)C2CC(c3ccc(N)cc3)(C2)C1=O,197 to 198
6,CCn1c(CCO)nc(C(C)C)c1Sc1cc(Cl)cc(Cl)c1,80 to 81
7,CC(C)c1cc(C(C)C)c2c(c1)C1(N)C(=O)c3ccccc3C1(O)O2 (configuration not stated),199 to 200
8,C#CCOC(=O)C1=C(C)N(C)C(C)=C(C(=O)OCC#C)C1c1cccc(C(F)(F)F)c1,163
9,CNC(=O)C(CCCl)(c1ccccc1)c1ccccc1,150 to 152
10,O=C1C=CC(O)(c2nc3ccccc3o2)C=C1,116 to 117
11,CCCCN(c1nc(NCCN)nc(N(CCCC)C2CC(C)(C)NC(C)(C)C2)n1)C1CC(C)(C)NC(C)(C)C1,140
12,CC(C)(C)OC(=O)NOC(=O)OC(C)(C)C,52
13,CC(C)(C(=O)NO)N(CCC(=O)O)S(=O)(=O)c1ccc(Oc2ccc(F)cc2)cc1,162
14,CCOc1cc(-n2c(=O)cc(C(F)(F)F)n(C)c2=O)c(F)cc1Br,128
15,CCS(=O)(=O)c1cc(C(=O)NCC2CCCN2CC2CCCC2)c(OC)cc1N (configuration not stated),140 to 141
16,CC1(C(N)=O)CCC=[N+]1[O-] (configuration not stated),134 to 135
17,CCN(CC)C(=O)c1ccc(OC)cc1,40 to 42
18,CCCCCCCCCC(=O)SCC(C)(C(=O)Nc1cccc(C(=O)O)c1C)c1ccccc1 (configuration not stated),105 to 111
19,CC(=O)NC(n1ccnc1)C(Cl)(Cl)CCl (configuration not stated),151 to 154
20,Cc1cc(C)nc(N(CCN(C(C)C)C(C)C)C(N)=O)n1,134 to 136
21,Cc1c(Cl)cccc1C(=N)NO,119 to 121

row,Structure (SMILES),melting point [°C]
1,CCOC(=O)C1=C(CO)NC=C(C(=O)OC)C1c1ccccc1Cl (configuration not stated),187 to 188
2,O=C(O)Cc1ccc(CNC(=O)C2Cc3ccccc3N2S(=O)(=O)c2ccc(-c3cccc(C(F)(F)F)c3)cc2)cc1 (configuration not stated),90
3,Cc1cc(I)cc(C=CC#N)c1,98
4,Cc1c(C(=O)C(N)=O)c2c(OCC(=O)O)cc3c(c2n1Cc1ccccc1)CCCC3,> 300
5,CC(=O)OC1CSC(Sc2ccc3ccccc3c2)C(OC(C)=O)C1OC(C)=O (configuration not stated),151
6,Cc1c(Cl)c(OCC(=O)O)c(Cc2ccc3c(Cl)cccc3c2)c(O)c1C=O,194 to 196
7,CCCC1CCC(C2(N=C=S)C=CC(CC)=CC2)CC1 (configuration not stated),43
8,Cc1ccc(N2C(=S)SCC2(C)O)nc1 (configuration not stated),108
9,CCOCc1nc2c(N)nc3cc(OCCCCCCNC(=O)CCS)ccc3c2n1CC(C)(C)NS(C)(=O)=O,152 to 157
10,CC1(C)C(=O)Nc2cc(O)c([N+](=O)[O-])cc21,244 to 247
11,CC1(C)CCCC=C1c1ccc(C(=O)O)cc1,181
12,NC(=O)c1n[nH]c2ccc([N+](=O)[O-])cc12,221 to 226
13,CC(C)(C)Nc1ccccc1C(CCC1CCCCC1)C(=O)c1cccc(Cl)c1 (configuration not stated),150 to 152
14,Cc1nnc(N2CCN(C=O)CC2)c2cc3ccccn3c12,325
15,OCCCc1cn(Cc2ccccc2)c2ccccc12,75
16,COc1nc(C)nc(NC(=O)NS(=O)(=O)c2ccc(Cl)nn2)n1,135
17,O=C(O)Cn1c(=O)c(=O)[nH]c2ccccc21,> 300
18,COC(=O)c1ccc(CBr)c(N(C)C(=O)OC)c1,99 to 102
19,OC1CN(Cc2ccccc2)C1,64.5 to 65.5

# Next, values leading:
row,melting point [°C],Structure (SMILES)
1,175,Cc1cc(-c2cscn2)ccc1-c1cc(C(F)(F)F)nn1-c1ccc(S(C)(=O)=O)cc1
2,145 to 148,Cc1ccc(COc2ncc(F)c(NS(C)(=O)=O)n2)cc1
3,217 to 219,CC(C)Oc1nc2cc(-n3ccc(=O)cc3)c([N+](=O)[O-])cc2nc1OC(C)C
4,184 to 186,Cc1ccc(C2CCN(C(=O)Nc3ccc4nc(CN(C(C)C)C(C)C)ccc4c3)CC2)cc1
5,68 to 69,C#Cc1cccc(Oc2ccc([N+](=O)[O-])c([N+](=O)[O-])c2)c1
6,88.6 to 89.1,Cc1ccc(-c2nccc3c(Cl)cccc23)cc1
7,100,COc1ccc(S(=O)(=O)N(CCNC(=O)NCc2ccccc2)c2ccc(C)cc2Cc2c(F)cccc2F)cc1OC
8,64.5 to 65,COCCN(CCOC)c1ccc(NC(=O)Nc2ccc(Oc3ccncc3)cc2)cc1C(F)(F)F
9,175 to 176,CCCc1c(C(=O)NCc2ccc3c(Br)c(OCC#N)ccc3c2)cnn1-c1ccccc1
10,88 to 95,COc1cc(F)ccc1-c1ccc(S(=O)(=O)N2c3ccccc3CC2C(=O)NCCOc2ccc(C(=O)O)c(F)c2)cc1 (configuration not stated)
11,55,COc1cc2c(cc1Br)c1ccccc1n2CCC(C)CCCC(C)C (configuration not stated)
12,246 to 247,O=C(Nc1cccc2c(CO)c(Br)cnc12)c1c(Cl)cccc1Cl
13,203 to 206,NC(=O)COc1cccc(NC(=O)c2cc(-c3cccc(F)c3)ccc2F)c1
14,158 to 159,CCOC(=O)c1cc2c(C)ccc(N(C)S(=O)(=O)c3cccnc3Cl)c2[nH]1
15,141 to 142,CCCOc1c(OC)cc([C@H]2CC[C@H](c3cc(OC)c(OC)c(OC)c3)O2)cc1S(=O)(=O)CCO (relative stereo)
16,160,COc1ccc(Cn2c(=O)oc(=O)c3cccnc32)cc1
17,176 to 178,O=C1COc2ccc(-c3cccnc3-c3ccccc3)cc2N1
18,135 to 138,COc1cccc(Nc2ccnc(Nc3ccc(OC)c(OC)c3)n2)c1

row,melting point [°C],Structure (SMILES)
1,90 to 92,COc1ccc2c(c1)C(NCc1cc(OC)c(OC)cc1N)CCO2 (configuration not stated)
2,245 to 246,CC(=O)Nc1ccc(-c2nn(C(C)=O)c3c2Cc2ccccc2-3)cc1
3,248 to 250,O=C1CCC(N2Cc3c(OCc4ccc(Cn5ccnc5)cc4)cccc3C2=O)C(=O)N1 (configuration not stated)
4,198 to 201,Cc1nc(-n2cccc(OCc3ccccc3)c2=O)sc1C(=O)NCc1ccccc1
5,214,COc1ccc(C2CC(C(C)(C)C)=NN2c2ccc(C(=O)O)cc2)c(OC)c1 (configuration not stated)
6,> 260,Cc1nnc2c(NC(N)=O)cc3cc(-c4ccc(CN5CCCCC5)cc4)ccc3n12
7,205,Cc1cc(S(C)(=O)=O)ccc1-n1nc(C(F)(F)F)cc1-c1ccc(-c2ccco2)cc1
8,274 to 276,COc1ccc(OC)c2[nH]c(-c3ccc(Cl)cc3)nc12
9,220,CN1CCN(CC/C=C/c2cc3c(Nc4ccc5[nH]ccc5c4)c(C#N)cnc3s2)CC1
10,175 to 179,O=C(Nc1cc(-c2ccnc3c(C(=O)c4cccs4)cnn23)ccc1F)c1ccncc1
11,141 to 144,CN(C)CCOc1ccc(C(=O)c2c(-c3ccc(O)cc3)sc3cc(O)ccc23)cc1
12,135,COC(=O)c1cc(OCc2ccccc2)c(OCc2ccccc2)c(CSCC(=O)O)n1
13,132 to 134,CN(C)CCOc1ccc(-c2n[nH]c3ncccc23)cc1
14,244,NS(=O)(=O)c1cccc(-c2cc(-c3nc(-c4cccc(C(F)(F)F)c4)cc(C(F)(F)F)n3)ccn2)c1
15,115 to 116,COC(=O)/C=C/c1ccc(OC2Cc3ccccc3C2)cc1
16,107 to 109,COC(C#N)Cc1ccc2oc(Cc3nc(-c4ccccc4)oc3C)cc2c1 (configuration not stated)
17,159 to 160,Cc1oc(-c2ccccc2)nc1COc1ccc(COc2cccc(CC(=O)O)c2)cc1
18,147 to 148,COc1ccc(/C=C(\C#N)c2ccc3ccccc3c2)cc1OC1CCCC1
